Experimental data: ChEMBL document CHEMBL4368888, “Design, synthesis and biological evaluation of tryptamine salicylic acid derivatives as potential antitumor agents” (Medchemcomm, 2019)
pIC50: −log10 of the molar value. Calls of active or inactive are those of the source. The calls are words filed in the database; no cut-off is given here.

Key:
MGC-803 [1] = assay: Induction of apoptosis in human MGC803 cells assessed as viable cells at 10 uM after 24 hrs by Annexin V-FITC/propidium iodide staining-based flow cytometric analysis (reference value: 94.2%); assay type: functional; details: MGC-803, 24 h, read-out: Activity
MGC-803 [2] = assay: Inhibition of colony formation in human MGC803 cells assessed as reduction in viable cells at 40 uM incubated for 9 days where culture medium was changed every 3 days by crystal violet staining-based assay; assay type: functional
MGC-803 [3] = assay: Effect on HIF-1 expression levels in human MGC803 cells at 10 to 40 uM in presence of 100 uM CoCl2 after 24 hrs by Western blot analysis; assay type: functional, cell-based
MGC-803 [4] = assay: Induction of apoptosis in human MGC803 cells assessed as viable cells at 20 uM after 24 hrs by Annexin V-FITC/propidium iodide staining-based flow cytometric analysis (reference value: 94.2%); assay type: functional; details: MGC-803, 24 h, read-out: Activity
MGC-803 [5] = assay: Induction of apoptosis in human MGC803 cells assessed as early apoptotic cells at 10 uM after 24 hrs by Annexin V-FITC/propidium iodide staining-based flow cytometric analysis (reference value: 1.04%); assay type: functional
MGC-803 [6] = assay: Induction of apoptosis in human MGC803 cells assessed as viable cells at 30 uM after 24 hrs by Annexin V-FITC/propidium iodide staining-based flow cytometric analysis (reference value: 94.2%); assay type: functional; details: MGC-803, 24 h, read-out: Activity
HepG2 = assay: Antiproliferative activity against human HepG2 cells after 48 hrs by MTT assay; assay type: functional, cell-based; details: HepG2, 48 h
HeLa = assay: Antiproliferative activity against human HeLa cells after 48 hrs by MTT assay; assay type: functional, cell-based
MGC-803 [7] = assay: Cell cycle arrest in human MGC803 cells assessed as accumulation of cells at G0/G1 phase at 60 uM after 24 hrs by propidium iodide staining-based flow cytometric analysis (reference value: 51.37%); assay type: functional
MGC-803 [8] = assay: Effect on PFK expression levels in human MGC803 cells at 10 to 40 uM after 24 hrs by Western blot analysis; assay type: functional, cell-based
MGC-803 [9] = assay: Cell cycle arrest in human MGC803 cells assessed as accumulation of cells at G2/M phase at 60 uM after 24 hrs by propidium iodide staining-based flow cytometric analysis (reference value: 9.86%); assay type: functional
MGC-803 [10] = assay: Induction of apoptosis in human MGC803 cells after 24 hrs by Annexin V-FITC/propidium iodide staining-based flow cytometric analysis; assay type: functional, cell-based
MGC-803 [11] = assay: Cell cycle arrest in human MGC803 cells assessed as accumulation of cells at G2/M phase after 24 hrs by propidium iodide staining-based flow cytometric analysis; assay type: functional
A549 = assay: Antiproliferative activity against human A549 cells after 48 hrs by MTT assay; assay type: functional, cell-based; details: A549, 48 h
MGC-803 [12] = assay: Induction of apoptosis in human MGC803 cells assessed as necrotic cells at 20 uM after 24 hrs by Annexin V-FITC/propidium iodide staining-based flow cytometric analysis (reference value: 0.556%); assay type: functional
MGC-803 [13] = assay: Antimigratory activity against human MGC803 cells after 48 hrs by scratch wound-healing assay; assay type: functional, cell-based
MGC-803 [14] = assay: Induction of apoptosis in human MGC803 cells assessed as early apoptotic cells at 20 uM after 24 hrs by Annexin V-FITC/propidium iodide staining-based flow cytometric analysis (reference value: 1.04%); assay type: functional
MGC-803 [15] = assay: Induction of apoptosis in human MGC803 cells assessed as necrotic cells at 10 uM after 24 hrs by Annexin V-FITC/propidium iodide staining-based flow cytometric analysis (reference value: 0.556%); assay type: functional
MGC-803 [16] = assay: Cell cycle arrest in human MGC803 cells assessed as accumulation of cells at G2/M phase at 40 uM after 24 hrs by propidium iodide staining-based flow cytometric analysis (reference value: 9.86%); assay type: functional
MGC-803 [17] = assay: Cell cycle arrest in human MGC803 cells assessed as accumulation of cells at S phase at 20 uM after 24 hrs by propidium iodide staining-based flow cytometric analysis (reference value: 37.1%); assay type: functional
MGC-803 [18] = assay: Cell cycle arrest in human MGC803 cells assessed as accumulation of cells at G2/M phase at 20 uM after 24 hrs by propidium iodide staining-based flow cytometric analysis (reference value: 9.86%); assay type: functional
MGC-803 [19] = assay: Induction of apoptosis in human MGC803 cells assessed as late apoptotic cells at 30 uM after 24 hrs by Annexin V-FITC/propidium iodide staining-based flow cytometric analysis (reference value: 4.17%); assay type: functional
MGC-803 [20] = assay: Induction of apoptosis in human MGC803 cells assessed as late apoptotic cells at 10 uM after 24 hrs by Annexin V-FITC/propidium iodide staining-based flow cytometric analysis (reference value: 4.17%); assay type: functional
MGC-803 [21] = assay: Inhibition of colony formation in human MGC803 cells assessed as reduction in viable cells incubated for 9 days where culture medium was changed every 3 days by crystal violet staining-based assay; assay type: functional, cell-based
MGC-803 [22] = assay: Cell cycle arrest in human MGC803 cells assessed as accumulation of cells at G0/G1 phase at 20 uM after 24 hrs by propidium iodide staining-based flow cytometric analysis (reference value: 51.37%); assay type: functional
MCF7 = assay: Antiproliferative activity against human MCF7 cells after 48 hrs by MTT assay; assay type: functional, cell-based; details: MCF7, 48 h
MGC-803 [23] = assay: Antiproliferative activity against human MGC803 cells after 48 hrs by MTT assay; assay type: functional, cell-based; details: MGC-803, 48 h
MGC-803 [24] = assay: Down regulation of HK2 expression levels in human MGC803 cells at 10 to 40 uM after 24 hrs by Western blot analysis; assay type: functional, cell-based
MGC-803 [25] = assay: Induction of apoptosis in human MGC803 cells assessed as necrotic cells at 30 uM after 24 hrs by Annexin V-FITC/propidium iodide staining-based flow cytometric analysis (reference value: 0.556%); assay type: functional
MGC-803 [26] = assay: Cell cycle arrest in human MGC803 cells assessed as accumulation of cells at S phase at 60 uM after 24 hrs by propidium iodide staining-based flow cytometric analysis (reference value: 37.1%); assay type: functional
MGC-803 [27] = assay: Cell cycle arrest in human MGC803 cells assessed as accumulation of cells at S phase at 40 uM after 24 hrs by propidium iodide staining-based flow cytometric analysis (reference value: 37.1%); assay type: functional
MGC-803 [28] = assay: Cell cycle arrest in human MGC803 cells assessed as accumulation of cells at G0/G1 phase at 40 uM after 24 hrs by propidium iodide staining-based flow cytometric analysis (reference value: 51.37%); assay type: functional
MGC-803 [29] = assay: Induction of apoptosis in human MGC803 cells assessed as late apoptotic cells at 20 uM after 24 hrs by Annexin V-FITC/propidium iodide staining-based flow cytometric analysis (reference value: 4.17%); assay type: functional
MGC-803 [30] = assay: Induction of apoptosis in human MGC803 cells assessed as early apoptotic cells at 30 uM after 24 hrs by Annexin V-FITC/propidium iodide staining-based flow cytometric analysis (reference value: 1.04%); assay type: functional

pIC50 (HepG2): 4.35
pIC50 (HeLa): 4.28
pIC50 (A549): 4.44
pIC50 (MCF7): 4.20
pIC50 (MGC-803 [23]): 4.54
Structure (SMILES): Cc1cccc(C(=O)NCCc2c[nH]c3ccc(Br)cc23)c1O
viability at 10 µM (MGC-803 [1]): 91.5%
inhibition at 40 µM (MGC-803 [2]): 100%
Activity (MGC-803 [3]): inactive
viability at 20 µM (MGC-803 [4]): 83%
Activity (MGC-803 [5]): 1.66%
viability at 30 µM (MGC-803 [6]): 41.3%
Activity (MGC-803 [7]): 52.98%
Activity (MGC-803 [8]): inactive
Activity (MGC-803 [9]): 40.78%
Activity (MGC-803 [10]): Dose-dependent effect
Activity (MGC-803 [11]): Dose-dependent effect
Activity (MGC-803 [12]): 1.37%
Activity (MGC-803 [13]): Dose-dependent effect
Activity (MGC-803 [14]): 5.97%
Activity (MGC-803 [15]): 0.25%
Activity (MGC-803 [16]): 34.65%
Activity (MGC-803 [17]): 21.11%
Activity (MGC-803 [18]): 27.01%
Activity (MGC-803 [19]): 15.4%
Activity (MGC-803 [20]): 6.56%
inhibition (MGC-803 [21]): Dose-dependent effect
Activity (MGC-803 [22]): 43%
Activity (MGC-803 [24]): Active
Activity (MGC-803 [25]): 0.587%
Activity (MGC-803 [26]): 7.56%
Activity (MGC-803 [27]): 15.58%
Activity (MGC-803 [28]): 49.99%
Activity (MGC-803 [29]): 9.67%
Activity (MGC-803 [30]): 42.7%
